Assay results taken from ChEMBL document CHEMBL5303573, “Mapping human microbiome drug metabolism by gut bacteria and their genes” (Nature, 2019).

Legend:
[1] = The drug is tested on Dorea formicigenerans strain: ATCC27755 for biotransformation. The drug concentrations were measured before and after a 12-h incubation by liquid-chromatography-coupled mass spectrometry (LC–MS); conditions: 2 µM
[2] = bifidobacterium adolescentis, 12 h, 2 µM
Description: The drug is tested on Bifidobacterium adolescentis strain: ATCC 15703 for biotransformation. The drug concentrations were measured before and after a 12-h incubation by liquid-chromatography-coupled mass spectrometry (LC–MS)

[3] = parabacteroides johnsonii, 12 h, 2 µM
Description: The drug is tested on Parabacteroides johnsonii strain: DSM18315 for biotransformation. The drug concentrations were measured before and after a 12-h incubation by liquid-chromatography-coupled mass spectrometry (LC–MS)

[4] = The drug is tested on Bacteroides finegoldii strain: DSM17565 for biotransformation. The drug concentrations were measured before and after a 12-h incubation by liquid-chromatography-coupled mass spectrometry (LC–MS); conditions: 2 µM
[5] = bacteroides stercoris, 12 h, 2 µM
Description: The drug is tested on Bacteroides stercoris strain: ATCC43183 for biotransformation. The drug concentrations were measured before and after a 12-h incubation by liquid-chromatography-coupled mass spectrometry (LC–MS)

[6] = The drug is tested on Collinsella aerofaciens strain: ATCC25986 for biotransformation. The drug concentrations were measured before and after a 12-h incubation by liquid-chromatography-coupled mass spectrometry (LC–MS); conditions: 2 µM
[7] = The drug is tested on Bacteroides dorei strain: DSM17855 for biotransformation. The drug concentrations were measured before and after a 12-h incubation by liquid-chromatography-coupled mass spectrometry (LC–MS); conditions: phocaeicola dorei, 2 µM
[8] = The drug is tested on Blautia hansenii strain: DSM20583 for biotransformation. The drug concentrations were measured before and after a 12-h incubation by liquid-chromatography-coupled mass spectrometry (LC–MS); conditions: 2 µM
[9] = The drug is tested on Bacteroides sp. WH2 strain: WH2 for biotransformation. The drug concentrations were measured before and after a 12-h incubation by liquid-chromatography-coupled mass spectrometry (LC–MS); conditions: bacteroides sp. wh2, 12 h, 2 µM
[10] = The drug is tested on Alistipes indistinctus strain: DSM22520 for biotransformation. The drug concentrations were measured before and after a 12-h incubation by liquid-chromatography-coupled mass spectrometry (LC–MS); conditions: 2 µM
[11] = The drug is tested on Bacteroides caccae strain: ATCC43185 for biotransformation. The drug concentrations were measured before and after a 12-h incubation by liquid-chromatography-coupled mass spectrometry (LC–MS); conditions: 2 µM
[12] = The drug is tested on Clostridium ramosum strain: DSM1402 for biotransformation. The drug concentrations were measured before and after a 12-h incubation by liquid-chromatography-coupled mass spectrometry (LC–MS); conditions: thomasclavelia ramosa, 2 µM
[13] = The drug is tested on Bacteroides coprophilus strain: DSM18228 for biotransformation. The drug concentrations were measured before and after a 12-h incubation by liquid-chromatography-coupled mass spectrometry (LC–MS); conditions: 2 µM
[14] = bacteroides fragilis, 12 h, 2 µM
Description: The drug is tested on Bacteroides fragilis strain: 3397 (T10) for biotransformation. The drug concentrations were measured before and after a 12-h incubation by liquid-chromatography-coupled mass spectrometry (LC–MS)

[15] = enterocloster bolteae, 12 h, 2 µM
Description: The drug is tested on Clostridium bolteae strain: ATCCBAA-613 for biotransformation. The drug concentrations were measured before and after a 12-h incubation by liquid-chromatography-coupled mass spectrometry (LC–MS)

[16] = The drug is tested on Enterobacter cancerogenus strain: ATCC35316 for biotransformation. The drug concentrations were measured before and after a 12-h incubation by liquid-chromatography-coupled mass spectrometry (LC–MS); conditions: 2 µM
[17] = bacteroides eggerthii, 12 h, 2 µM
Description: The drug is tested on Bacteroides eggerthii strain: DSM20697 for biotransformation. The drug concentrations were measured before and after a 12-h incubation by liquid-chromatography-coupled mass spectrometry (LC–MS)

[18] = parabacteroides distasonis, 12 h, 2 µM
Description: The drug is tested on Parabacteroides distasonis strain: ATCC8503 for biotransformation. The drug concentrations were measured before and after a 12-h incubation by liquid-chromatography-coupled mass spectrometry (LC–MS)

[19] = The drug is tested on Eubacterium hallii strain: DSM3353 for biotransformation. The drug concentrations were measured before and after a 12-h incubation by liquid-chromatography-coupled mass spectrometry (LC–MS); conditions: anaerobutyricum hallii, 2 µM
[20] = The drug is tested on Bacteroides fragilis strain: ATCC43859 for biotransformation. The drug concentrations were measured before and after a 12-h incubation by liquid-chromatography-coupled mass spectrometry (LC–MS); conditions: 2 µM

SMILES	Bacterial Biotransformation [1]	Bacterial Biotransformation [2]	Bacterial Biotransformation [3]	Bacterial Biotransformation [4]	Bacterial Biotransformation [5]	Bacterial Biotransformation [6]	Bacterial Biotransformation [7]	Bacterial Biotransformation [8]	Bacterial Biotransformation [9]	Bacterial Biotransformation [10]	Bacterial Biotransformation [11]	Bacterial Biotransformation [12]	Bacterial Biotransformation [13]	Bacterial Biotransformation [14]	Bacterial Biotransformation [15]	Bacterial Biotransformation [16]	Bacterial Biotransformation [17]	Bacterial Biotransformation [18]	Bacterial Biotransformation [19]	Bacterial Biotransformation [20]
CCCCC(=O)N(Cc1ccc(-c2ccccc2-c2nnn[nH]2)cc1)[C@H](C(=O)O)C(C)C	Compound NOT metabolized	Compound NOT metabolized	Compound NOT metabolized	Compound metabolized	Compound NOT metabolized	Compound NOT metabolized	Compound NOT metabolized	Compound NOT metabolized	Compound NOT metabolized	Compound NOT metabolized	Compound NOT metabolized	Compound NOT metabolized	Compound NOT metabolized	Compound NOT metabolized	Compound NOT metabolized	Compound NOT metabolized	Compound NOT metabolized	Compound metabolized	Compound NOT metabolized	Compound metabolized
CCN(CC)CCNC(=O)c1cc(S(C)(=O)=O)ccc1OC [TIAPRIDE]	Compound NOT metabolized	Compound NOT metabolized	Compound NOT metabolized	Compound NOT metabolized	–	Compound NOT metabolized	Compound NOT metabolized	Compound NOT metabolized	Compound NOT metabolized	Compound NOT metabolized	Compound NOT metabolized	Compound NOT metabolized	–	–	Compound NOT metabolized	Compound NOT metabolized	–	Compound NOT metabolized	Compound NOT metabolized	Compound NOT metabolized
COc1c2occc2cc2ccc(=O)oc12 [METHOXSALEN]	Compound NOT metabolized	Compound NOT metabolized	Compound metabolized	Compound metabolized	–	Compound NOT metabolized	Compound metabolized	Compound metabolized	–	Compound NOT metabolized	Compound metabolized	Compound metabolized	–	–	Compound metabolized	Compound NOT metabolized	Compound metabolized	Compound metabolized	Compound metabolized	Compound metabolized
COC(=O)[C@H]1[C@H]2C[C@@H]3c4[nH]c5cc(OC)ccc5c4CCN3C[C@H]2C[C@@H](OC(=O)c2cc(OC)c(OC)c(OC)c2)[C@@H]1OC [RESERPINE]	Compound NOT metabolized	Compound NOT metabolized	Compound NOT metabolized	–	Compound NOT metabolized	Compound NOT metabolized	Compound NOT metabolized	Compound NOT metabolized	Compound NOT metabolized	Compound NOT metabolized	Compound NOT metabolized	Compound NOT metabolized	Compound NOT metabolized	Compound NOT metabolized	Compound NOT metabolized	Compound NOT metabolized	Compound NOT metabolized	Compound NOT metabolized	Compound NOT metabolized	Compound NOT metabolized
CCCCc1nc(Cl)c(CO)n1Cc1ccc(-c2ccccc2-c2nn[nH]n2)cc1 [LOSARTAN]	Compound NOT metabolized	Compound NOT metabolized	Compound metabolized	Compound metabolized	–	Compound NOT metabolized	Compound metabolized	Compound NOT metabolized	Compound NOT metabolized	Compound NOT metabolized	–	Compound NOT metabolized	Compound NOT metabolized	–	Compound NOT metabolized	Compound NOT metabolized	–	Compound metabolized	Compound NOT metabolized	Compound metabolized
